Reference: patent US8246944B2, “Immunotherapeutic agent for the combined treatment of tuberculosis in association with other drugs” (Archivel Farma, S.L., priority 2003, dated 2012)

Assays:
[1] = system: virulent strain of Mycobacterium tuberculosis; assay: […]; bacillary concentration in left lung and spleen; type: in vivo, BALB/c mice; conditions: Control: isoniazid only 25 mg/kg per day, 5 days per week, 6 weeks (weeks 9-15); killed week 15
[2] = system: virulent strain of Mycobacterium tuberculosis; assay: as above; type: in vivo, C57BL/6 mice; conditions: Control: isoniazid alone 25 mg/kg per day, 5 days per week, weeks 9-17

For `NNC(=O)c1ccncc1` [isoniazid], the “Bacillary concentration, Lung” value [1] was 7.5 ± 2.89 UFC/mL, the “Bacillary concentration, Spleen” value [1] was 0.75 ± 0.33 UFC/mL and the “Bacillary concentration, lungs, Week 15” value ([2]; sacrificed week 15) was 2.34 ± 0.24 log10 UFC/mL. The “Bacillary concentration, spleen, Week 15” value ([2]; sacrificed week 15) was 1.47 ± 0.44 log10 UFC/mL, the “Bacillary concentration, lungs, Week 28” value ([2]; sacrificed week 28) was 3.86 ± 0.41 log10 UFC/mL and the “Bacillary concentration, spleen, Week 28” value ([2]; sacrificed week 28) was 3.84 ± 0.48 log10 UFC/mL.
